The values below come from BindingDB's records for PubMed 9618428 (Glaxo Wellcome Research and Development, 1998).

Several values for one entry are separate records, joined by “and”; a condition that tells them apart may be missing. Equal entries are not always repeated.

In test [1] the target is Melatonin receptor type 1A (Sus scrofa, UniProt O02781).
In test [2] the target is Melatonin receptor type 1A (Homo sapiens, UniProt P48039).
Test [3] has as its target T1, Melatonin receptor type 1B (Homo sapiens, UniProt P49286).
T1 sequence (P49286 whole entry): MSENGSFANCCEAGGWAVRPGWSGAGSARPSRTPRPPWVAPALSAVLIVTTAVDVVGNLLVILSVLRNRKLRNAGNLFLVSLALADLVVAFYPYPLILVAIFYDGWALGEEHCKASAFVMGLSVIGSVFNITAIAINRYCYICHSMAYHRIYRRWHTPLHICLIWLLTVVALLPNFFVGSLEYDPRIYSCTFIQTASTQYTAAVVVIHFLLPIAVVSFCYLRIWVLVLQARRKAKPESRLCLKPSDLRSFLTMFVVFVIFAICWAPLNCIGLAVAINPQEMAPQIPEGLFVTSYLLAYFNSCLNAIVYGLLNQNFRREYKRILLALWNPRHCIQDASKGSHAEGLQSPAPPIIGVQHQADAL

Sequence of Melatonin receptor type 1A (Sus scrofa, UniProt O02781) (O02781 whole entry): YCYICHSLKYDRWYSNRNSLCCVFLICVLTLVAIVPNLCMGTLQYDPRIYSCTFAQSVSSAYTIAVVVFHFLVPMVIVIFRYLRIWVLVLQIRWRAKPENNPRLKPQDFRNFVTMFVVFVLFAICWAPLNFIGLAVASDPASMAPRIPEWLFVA
Sequence of Melatonin receptor type 1A (Homo sapiens, UniProt P48039) (P48039 whole entry): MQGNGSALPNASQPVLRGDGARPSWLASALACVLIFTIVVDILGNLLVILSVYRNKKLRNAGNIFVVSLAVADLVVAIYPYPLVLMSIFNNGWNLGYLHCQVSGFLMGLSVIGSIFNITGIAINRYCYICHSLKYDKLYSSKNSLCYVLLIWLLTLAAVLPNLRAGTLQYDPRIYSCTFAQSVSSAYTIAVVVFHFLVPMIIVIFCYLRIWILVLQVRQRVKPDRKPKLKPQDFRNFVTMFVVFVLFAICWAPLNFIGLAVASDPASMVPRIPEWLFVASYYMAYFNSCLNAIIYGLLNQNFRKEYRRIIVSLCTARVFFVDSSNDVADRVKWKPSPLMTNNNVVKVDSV

Usually Ki stands for a dissociation constant, usually derived from enzyme kinetics or from competition with a known ligand. Read a high Ki as weaker binding. `COc1ccc2[nH]c(I)c(CCNC(C)=O)c2c1`: the Ki in test [1] was 0.03 nM and 0.04 nM.

Regarding `COc1cc2c(CCNC(C)=O)c[nH]c2cc1Cl`, the Ki in test [1] is 0.46 nM and 0.74 nM.

`COc1ccc2[nH]cc(CCNC(C)=O)c2c1`: the Ki in test [1] is 0.25 nM and 0.24 nM.

Turning to `CC(=O)NCCc1c(Cc2ccccc2)[nH]c2ccccc12` [CAS_117946-91-5], in test [1], the Ki was 933 nM and 676 nM.

As to `CC(=O)NCCc1c[nH]c2ccc(O)cc12` [N-Acetyltryptamine,5-Hydroxy], the inhibitory constant (Ki) was 79.4 nM in test [2]; 302 nM and 148 nM in test [3]; 398 nM and 347 nM in test [1].

Regarding `CC(=O)NCCN1CCc2ccc3c(c21)CCO3` [NSC_5311134], the inhibitory constant (Ki) in test [2] is 0.14 nM; in test [3], 0.16 nM; in test [1], 0.61 nM and 0.33 nM.

Regarding `COc1cc2c(CCNC(C)=O)c[nH]c2cc1O` [melatonin, 6-Hydroxy], the inhibition constant (Ki) in test [2] was 0.54 nM; in test [3] it was 2.23 nM and 1.69 nM; in test [1], 10.2 nM and 25.1 nM.
